Measurements from patent publication US12606541B2, “PPARg modulators and methods of use” (Eisai R&D Management Co., Ltd., priority 2020, dated 2026).
Like-named read-outs stand apart in the source and are kept apart here.

Biological target: T1, His6-TEV-PPARγ-(234-505) (Homo sapiens, UniProt P37231)
T1 construct: The His6-TEV-PPARγ-(234-505) protein for assay was expressed and purified; TEV cleavage site (N); made in house
T1 sequence (P37231 234-505): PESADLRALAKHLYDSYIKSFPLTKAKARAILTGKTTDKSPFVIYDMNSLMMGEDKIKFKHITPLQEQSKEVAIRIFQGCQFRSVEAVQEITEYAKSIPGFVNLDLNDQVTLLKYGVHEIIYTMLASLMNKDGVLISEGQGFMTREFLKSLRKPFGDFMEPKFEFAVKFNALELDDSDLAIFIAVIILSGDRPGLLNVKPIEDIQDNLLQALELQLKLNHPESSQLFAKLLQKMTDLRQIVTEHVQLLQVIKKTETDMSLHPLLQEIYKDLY
Assay: TR-FRET Assay to Measure Co-R Peptide Recruitment to PPARγ
Format: biochemical
How it was run: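 His-tagged PPARγ (or controls) was preincubated with compound for 20 minutes at room temperature, then 5 nM anti-His terbium antibody and 200 nM FITC-labeled SMRT-ID2 corepressor peptide (final) were added for a further hour. TR-FRET signal was normalized to percent response using 500 nM T0070907 and DMSO controls.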

[1] = Co-R peptide recruitment to PPARγ, read-out: TR-FRET AC50

| AC50 [1] [nM] | AC50 (TR-FRET AC50, Co-R peptide recruitment to PPARγ) [nM] | Compound |
| --- | --- | --- |
| > 1000 |  | COc1cc(-c2cc(C(=O)N3CCC(C(=O)NC(C)C4CCC4)CC3)n[nH]2)c(F)cn1 (stereo not drawn) [N-(1-cyclobutylethyl)-1-[5-(5-fluoro-2-methoxypyridin-4-yl)-1H-pyrazole-3-carbonyl]piperidine-4-carboxamide] |
| > 1000 |  | COc1cc(-c2cc(C(=O)N3CCC(C(=O)NC4CCC(C)(C)CC4)CC3)n[nH]2)ccn1 [N-(4,4-dimethylcyclohexyl)-1-[5-(2-methoxypyridin-4-yl)-1H-pyrazole-3-carbonyl]piperidine-4-carboxamide] |
| > 1000 |  | COc1cc(-c2cc(C(=O)N3CCC(C(=O)NC4CCN(C(C)(C)C)CC4)CC3)n[nH]2)c(Cl)cn1 [N-(1-tert-butylpiperidin-4-yl)-1-[5-(5-chloro-2-methoxypyridin-4-yl)-1H-pyrazole-3-carbonyl]piperidine-4-carboxamide] |
| > 1000 |  | O=C(c1cc(-c2ccncc2)[nH]n1)N1CCC(C(=O)N2CCC[C@H]2CO)CC1 [[(2S)-1-{1-[5-(pyridin-4-yl)-1H-pyrazole-3-carbonyl]piperidine-4-carbonyl}pyrrolidin-2-yl]methanol] |
| > 1000 |  | CC(C)CCNC(=O)C1CCN(C(=O)c2cc(-c3ccncc3)[nH]n2)CC1 [N-(3-methylbutyl)-1-[5-(pyridin-4-yl)-1H-pyrazole-3-carbonyl]piperidine-4-carboxamide] |
| > 1000 |  | C[C@@H](NC(=O)C1CCN(C(=O)c2cc(-c3ccncc3)[nH]n2)CC1)c1ccc(C(C)(C)C)cc1 [N-[(1R)-1-(4-tert-butylphenyl)ethyl]-1-[5-(pyridin-4-yl)-1H-pyrazole-3-carbonyl]piperidine-4-carboxamide] |
| > 1000 |  | COc1cc(-c2cc(C(=O)N3C[C@@H]4C[C@H]3CC4C(=O)NCc3cccc(Cl)c3)n[nH]2)c(F)cn1 (relative stereo) [(1S,4R,5R*)—N-[(3-chlorophenyl)methyl]-2-[5-(5-fluoro-2-methoxypyridin-4-yl)-1H-pyrazole-3-carbonyl]-2-azabicyclo[2.2.1]heptane-5-carboxamide] |
| > 1000 |  | COc1cc(-c2cc(C(=O)N3CCC(C(=O)NCc4cccc(Cl)c4)CC3)n[nH]2)c(C)cn1 [N-[(3-chlorophenyl)methyl]-1-[5-(2-methoxy-5-methylpyridin-4-yl)-1H-pyrazole-3-carbonyl]piperidine-4-carboxamide] |
| > 1000 |  | CN(C)CCCNC(=O)C1CCN(C(=O)c2cc(-c3ccncc3)[nH]n2)CC1 [N-[3-(dimethylamino)propyl]-1-[5-(pyridin-4-yl)-1H-pyrazole-3-carbonyl]piperidine-4-carboxamide] |
| > 1000 |  | COc1ccc(OC)c(CNC(=O)C2CCN(C(=O)c3cc(-c4ccncc4)[nH]n3)CC2)c1 [N-[(2,5-dimethoxyphenyl)methyl]-1-[5-(pyridin-4-yl)-1H-pyrazole-3-carbonyl]piperidine-4-carboxamide] |
| > 1000 |  | O=C(Nc1ccc(Cl)cc1)C1CCN(C(=O)c2cc(-c3ccncc3)[nH]n2)CC1 [N-(4-chlorophenyl)-1-[5-(pyridin-4-yl)-1H-pyrazole-3-carbonyl]piperidine-4-carboxamide] |

The remaining lines, values behind:

| Compound | AC50 [1] [nM] | AC50 (TR-FRET AC50, Co-R peptide recruitment to PPARγ) [nM] |
| --- | --- | --- |
| O=C(N[C@H]1CC[C@H](c2ccccc2)CC1)C1CCN(C(=O)c2cc(-c3ccncc3)[nH]n2)CC1 | > 1000 |  |
| COc1cc(-c2cc(C(=O)N3CCC(C(=O)NC4CC4C(F)(F)F)CC3)n[nH]2)c(Cl)cn1 (stereo not drawn) [1-[5-(5-chloro-2-methoxypyridin-4-yl)-1H-pyrazole-3-carbonyl]-N-[2-(trifluoromethyl)cyclopropyl]piperidine-4-carboxamide] | > 1000 |  |
| COc1cc(-c2cc(C(=O)N3CCC(C(=O)NCC4(C#N)CC4)CC3)n[nH]2)c(Cl)cn1 [1-[5-(5-chloro-2-methoxypyridin-4-yl)-1H-pyrazole-3-carbonyl]-N-[(1-cyanocyclopropyl)methyl]piperidine-4-carboxamide] | > 1000 |  |
| COc1cc(-c2cc(C(=O)N3CCC(C(=O)NCC4CN(C)CCO4)CC3)n[nH]2)c(Cl)cn1 (stereo not drawn) [1-[5-(5-chloro-2-methoxypyridin-4-yl)-1H-pyrazole-3-carbonyl]-N-[(4-methylmorpholin-2-yl)methyl]piperidine-4-carboxamide] | > 1000 |  |
| COc1cc(-c2cc(C(=O)N3CCC(C(=O)NCC4(O)CCOCC4)CC3)n[nH]2)c(Cl)cn1 [1-[5-(5-chloro-2-methoxypyridin-4-yl)-1H-pyrazole-3-carbonyl]-N-[(4-hydroxyoxan-4-yl)methyl]piperidine-4-carboxamide] | > 1000 |  |
| Cc1cc(-c2cc(C(=O)N3CCC(C(=O)N[C@H]4CC[C@@](O)(C(F)(F)F)CC4)CC34CC4)n[nH]2)c([C@H](C)O)cn1 (single isomer, unassigned) | > 1000 |  |
| COc1cc(-c2cc(C(=O)N3CCC(C(=O)NC4(c5cccc(Cl)c5)CC4)CC3)n[nH]2)c(Cl)cn1 [1-[5-(5-chloro-2-methoxypyridin-4-yl)-1H-pyrazole-3-carbonyl]-N-[1-(3-chlorophenyl)cyclopropyl]piperidine-4-carboxamide] | > 1000 |  |
| COc1cc(-c2cc(C(=O)N3CCC(C(=O)NCc4nccc(=O)[nH]4)CC3)n[nH]2)c(Cl)cn1 [1-[5-(5-chloro-2-methoxypyridin-4-yl)-1H-pyrazole-3-carbonyl]-N-[(6-oxo-1,6-dihydropyrimidin-2-yl)methyl]piperidine-4-carboxamide] | > 1000 |  |
| COc1cc(-c2cc(C(=O)N3CCC(C(=O)NCc4cn(C)cn4)CC3)n[nH]2)c(Cl)cn1 [1-[5-(5-chloro-2-methoxypyridin-4-yl)-1H-pyrazole-3-carbonyl]-N-[(1-methyl-1H-imidazol-4-yl)methyl]piperidine-4-carboxamide] | > 1000 |  |
| COc1cc(-c2cc(C(=O)N3CCC(C(=O)NC4(C)CC(F)(F)C4)CC3)n[nH]2)c(Cl)cn1 [1-[5-(5-chloro-2-methoxypyridin-4-yl)-1H-pyrazole-3-carbonyl]-N-(3,3-difluoro-1-methylcyclobutyl)piperidine-4-carboxamide] | > 1000 |  |
| COc1cc(-c2cc(C(=O)N3CCC(C(=O)Nc4ccc(CS(C)(=O)=O)cc4)CC3)n[nH]2)c(Cl)cn1 [1-[5-(5-chloro-2-methoxypyridin-4-yl)-1H-pyrazole-3-carbonyl]-N-[4-(methanesulfonylmethyl)phenyl]piperidine-4-carboxamide] | > 1000 |  |
| COc1cc(-c2cc(C(=O)N3CCC(C(=O)NCc4cc(C)ccn4)CC3)n[nH]2)c(Cl)cn1 [1-[5-(5-chloro-2-methoxypyridin-4-yl)-1H-pyrazole-3-carbonyl]-N-[(4-methylpyridine-2-yl)methyl]piperidine-4-carboxamide] | > 1000 |  |
| COc1cc(-c2cc(C(=O)N3CCC(C(=O)NC45CCC(C)(C4)OC5)CC3)n[nH]2)c(Cl)cn1 (stereo not drawn) [1-[5-(5-chloro-2-methoxypyridin-4-yl)-1H-pyrazole-3-carbonyl]-N-{1-methyl-2-oxabicyclo[2.2.1]heptan-4-yl}piperidine-4-carboxamide] | > 1000 |  |
| COc1cc(-c2cc(C(=O)N3CCC(C(=O)N[C@H]4CCCc5cccnc54)CC3)n[nH]2)c(Cl)cn1 [1-[5-(5-chloro-2-methoxypyridin-4-yl)-1H-pyrazole-3-carbonyl]-N-[(8S)-5,6,7,8-tetrahydroquinolin-8-yl]piperidine-4-carboxamide] | > 1000 |  |
| COc1cc(-c2cc(C(=O)N3CCC(C(=O)NC(C)(C)c4ccccc4)CC3)n[nH]2)ccn1 [1-[5-(2-methoxypyridin-4-yl)-1H-pyrazole-3-carbonyl]-N-(2-phenylpropan-2-yl)piperidine-4-carboxamide] |  | > 1000 |
| COc1cc(-c2cc(C(=O)N3CCC(C(=O)NCc4cccc(Cl)c4)C4C3C4(F)F)n[nH]2)c(Cl)cn1 (stereo not drawn) [2-[5-(5-chloro-2-methoxypyridin-4-yl)-1H-pyrazole-3-carbonyl]-N-[(3-chlorophenyl)methyl]-7,7-difluoro-2-azabicyclo[4.1.0]heptane-5-carboxamide] | > 1000 |  |
| C[C@H]1CC[C@H](NC(=O)C2CCN(C(=O)c3cc(-c4cccnc4)n[nH]3)CC2)CC1 | > 1000 |  |
| CC1CCC(NC(=O)C2CCN(C(=O)c3cc(-c4ccnc(C#N)c4)[nH]n3)CC2)CC1 (stereo not drawn) [1-[5-(2-cyanopyridin-4-yl)-1H-pyrazole-3-carbonyl]-N-(4-methylcyclohexyl)piperidine-4-carboxamide] | > 1000 |  |
| COc1cc(-c2cc(C(=O)N3CCC(C(=O)NCc4n[nH]c(=O)c5ccccc45)CC3)n[nH]2)c(Cl)cn1 [1-[5-(5-chloro-2-methoxypyridin-4-yl)-1H-pyrazole-3-carbonyl]-N-[(4-oxo-3,4-dihydrophthalazin-1-yl)methyl]piperidine-4-carboxamide] | > 1000 |  |
| COc1cc(-c2cc(C(=O)N3CCC(C(=O)NCc4ccncn4)CC3)n[nH]2)c(Cl)cn1 [1-[5-(5-chloro-2-methoxypyridin-4-yl)-1H-pyrazole-3-carbonyl]-N-[(pyrimidin-4-yl)methyl]piperidine-4-carboxamide] | > 1000 |  |
| COc1cc(-c2cc(C(=O)N3CCC(C(=O)NC4CC(F)(F)C4)CC3)n[nH]2)c(Cl)cn1 [1-[5-(5-chloro-2-methoxypyridin-4-yl)-1H-pyrazole-3-carbonyl]-N-(3,3-difluorocyclobutyl)piperidine-4-carboxamide] | > 1000 |  |
| CCC1(CNC(=O)C2CCN(C(=O)c3cc(-c4cc(OC)ncc4Cl)[nH]n3)CC2)COC1 [1-[5-(5-chloro-2-methoxypyridin-4-yl)-1H-pyrazole-3-carbonyl]-N-[(3-ethyloxetane-3-yl)methyl]piperidine-4-carboxamide] | > 1000 |  |
